These molecules were tested against T1, purified human HDAC6 (Homo sapiens, UniProt Q9UBN7) (assay: HDAC6 Enzyme Assay). Settings: enzyme inhibition, substrate Ac-Arg-Gly-Lys(Ac)-AMC, 1 hour at 30° C.
T1 construct: purchased BPS Bioscience 5006
T1 sequence (Q9UBN7 1-1215): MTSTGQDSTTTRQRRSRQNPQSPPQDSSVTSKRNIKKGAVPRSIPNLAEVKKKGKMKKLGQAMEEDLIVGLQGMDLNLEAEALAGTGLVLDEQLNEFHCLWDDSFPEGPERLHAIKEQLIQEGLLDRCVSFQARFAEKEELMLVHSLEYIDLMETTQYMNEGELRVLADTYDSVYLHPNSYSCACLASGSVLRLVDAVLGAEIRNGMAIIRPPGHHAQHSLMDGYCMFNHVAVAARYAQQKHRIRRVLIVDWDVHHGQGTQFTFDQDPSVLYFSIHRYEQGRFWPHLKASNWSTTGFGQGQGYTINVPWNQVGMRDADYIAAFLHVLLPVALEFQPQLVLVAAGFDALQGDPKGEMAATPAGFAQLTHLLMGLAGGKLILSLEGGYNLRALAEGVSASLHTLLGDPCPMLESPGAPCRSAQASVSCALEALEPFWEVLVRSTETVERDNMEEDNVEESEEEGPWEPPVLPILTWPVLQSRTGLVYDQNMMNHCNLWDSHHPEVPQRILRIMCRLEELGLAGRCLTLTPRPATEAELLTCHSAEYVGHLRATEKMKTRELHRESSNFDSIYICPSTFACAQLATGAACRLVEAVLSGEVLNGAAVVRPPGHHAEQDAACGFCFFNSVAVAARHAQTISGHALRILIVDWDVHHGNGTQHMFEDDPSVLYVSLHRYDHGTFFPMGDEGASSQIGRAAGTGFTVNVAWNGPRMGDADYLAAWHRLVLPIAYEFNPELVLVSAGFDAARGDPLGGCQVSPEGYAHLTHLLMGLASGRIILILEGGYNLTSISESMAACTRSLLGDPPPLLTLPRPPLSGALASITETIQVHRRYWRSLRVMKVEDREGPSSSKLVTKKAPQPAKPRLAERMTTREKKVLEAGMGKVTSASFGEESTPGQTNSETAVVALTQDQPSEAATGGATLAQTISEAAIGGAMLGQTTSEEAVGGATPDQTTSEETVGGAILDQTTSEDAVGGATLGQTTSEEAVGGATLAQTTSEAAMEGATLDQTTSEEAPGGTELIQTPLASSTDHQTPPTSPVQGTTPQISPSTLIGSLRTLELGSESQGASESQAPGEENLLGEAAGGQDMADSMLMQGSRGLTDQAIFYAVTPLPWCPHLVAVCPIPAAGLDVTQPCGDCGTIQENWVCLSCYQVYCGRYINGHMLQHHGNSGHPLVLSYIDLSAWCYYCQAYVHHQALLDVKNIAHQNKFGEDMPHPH
Assay type: biochemical
Procedure, shortened: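 Purified human HDAC6 incubated 1 h at 30 °C with Ac-Arg-Gly-Lys(Ac)-AMC peptide and compound; reaction stopped with trichostatin A, then trypsin releases AMC, read by fluorescence (Ex 340/Em 460 nm). IC50 from concentration-response curves relative to DMSO controls.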

| SMILES | IC50 [nM] |
| --- | --- |
| Cc1noc(C)c1S(=O)(=O)N1CCc2cc(C(=O)NO)sc2C1 [Compound 20, 6-[(3,5-dimethylisoxazol-4-yl)sulfonyl]-N-hydroxy-4,5,6,7-tetrahydrothieno[2,3-c]pyridine-2-carboxamide] | < 50 |
| CCc1cc(C(=O)N2CCc3cc(C(=O)NO)sc3C2)n(C)n1 [Compound 186, 6-[(3-ethyl-1-methyl-1H-pyrazol-5-yl)carbonyl]-N-hydroxy-4,5,6,7-tetrahydrothieno[2,3-c]pyridine-2-carboxamide] | < 50 |
| O=C(NO)c1cc2c(s1)CN(C(=O)c1ccc3ccccc3n1)CC2 [Compound 179, N-hydroxy-6-(quinolin-2-ylcarbonyl)-4,5,6,7-tetrahydrothieno[2,3-c]pyridine-2-carboxamide] | < 50 |
| CC1(C(=O)N2CCc3cc(C(=O)NO)sc3C2)CCCCC1 [Compound 3, N-hydroxy-6-[(1-methylcyclohexyl)carbonyl]-4,5,6,7-tetrahydrothieno[2,3-c]pyridine-2-carboxamide] | < 50 |
| O=C(NO)c1cc2c(s1)CN(S(=O)(=O)CC(c1ccccc1)c1ccccc1)CC2 [Compound 18, 6-[(2,2-diphenylethyl)sulfonyl]-N-hydroxy-4,5,6,7-tetrahydrothieno[2,3-c]pyridine-2-carboxamide] | < 50 |
| CC1(C)CN(C(=O)Nc2ccc(C#N)cc2)Cc2cc(C(=O)NO)sc21 [Compound 196, N^5-(4-cyanophenyl)-N2-hydroxy-7,7-dimethyl-6,7-dihydrothieno[3,2-c]pyridine-2,5(4H)-dicarboxamide] | > 1000 |
| Cc1nc(C(=O)N2Cc3cc(C(=O)NO)sc3C(C)(C)C2)cs1 [Compound 222, N-hydroxy-7,7-dimethyl-5-[(2-methyl-1,3-thiazol-4-yl)carbonyl]-4,5,6,7-tetrahydrothieno[3,2-c]pyridine-2-carboxamide] | > 1000 |
| Cc1ccc(OCC(=O)N2CCc3cc(C(=O)NO)sc3C2)c(C)c1 [Compound 12, 6-[(2,4-dimethylphenoxy)acetyl]-N-hydroxy-4,5,6,7-tetrahydrothieno[2,3-c]pyridine-2-carboxamide] | > 1000 |
| Cn1nc(C(C)(C)C)cc1C(=O)N1CCc2cc(C(=O)NO)sc2C1 [Compound 88, 6-[(3-tert-butyl-1-methyl-1H-pyrazol-5-yl)carbonyl]-N-hydroxy-4,5,6,7-tetrahydrothieno[2,3-c]pyridine-2-carboxamide] | < 50 |
| O=C(NO)c1cc2c(s1)CN(C(=O)Nc1ccc(I)cc1)CC2 [Compound 163, N^2-hydroxy-N^6-(4-iodophenyl)-4,7-dihydrothieno[2,3-c]pyridine-2,6(5H)-dicarboxamide] | < 50 |
| Cc1onc(-c2ccc(F)cc2)c1C(=O)N1CCc2cc(C(=O)NO)sc2C1 [Compound 184, 6-{[3-(4-fluorophenyl)-5-methylisoxazol-4-yl]carbonyl}-N-hydroxy-4,5,6,7-tetrahydrothieno[2,3-c]pyridine-2-carboxamide] | < 50 |
| Cc1ncsc1C(=O)N1CCc2cc(C(=O)NO)sc2C1 [Compound 98, N-hydroxy-6-[(4-methyl-1,3-thiazol-5-yl)carbonyl]-4,5,6,7-tetrahydrothieno[2,3-c]pyridine-2-carboxamide] | < 50 |
| COc1c(C(=O)N2CCc3cc(C(=O)NO)sc3C2)csc1Cl [Compound 7, 6-[(5-chloro-4-methoxy-3-thienyl)carbonyl]-N-hydroxy-4,5,6,7-tetrahydrothieno[2,3-c]pyridine-2-carboxamide] | < 50 |
| O=C(NO)c1cc2c(s1)CCN(C(=O)c1cccc3cccnc13)C2 [Compound 30, N-hydroxy-5-(quinolin-8-ylcarbonyl)-4,5,6,7-tetrahydrothieno[3,2-c]pyridine-2-carboxamide] | < 50 |
| CC1(C)CN(C(=O)c2ccccc2Cl)Cc2cc(C(=O)NO)sc21 [Compound 234, 5-(2-chlorobenzoyl)-N-hydroxy-7,7-dimethyl-4,5,6,7-tetrahydrothieno[3,2-c]pyridine-2-carboxamide] | > 1000 |
| O=C(NO)c1cc2c(s1)CCN(C(=O)C1CCCCC1)C2 [Compound 31, 5-(cyclohexanecarbonyl)-N-hydroxy-4,5,6,7-tetrahydrothieno[3,2-c]pyridine-2-carboxamide] | < 50 |
| O=C(NO)c1cc2c(s1)CN(C(=O)c1ccsc1)CC2 [Compound 5, N-hydroxy-6-(3-thienylcarbonyl)-4,5,6,7-tetrahydrothieno[2,3-c]pyridine-2-carboxamide] | < 50 |
| O=C(NO)c1cc2c(s1)CN(C(=O)C1CCCCN1S(=O)(=O)c1ccccc1)CC2 (stereo not drawn) [Compound 15, N-hydroxy-6-{[1-(phenylsulfonyl)piperidin-2-yl]carbonyl}-4,5,6,7-tetrahydrothieno[2,3-c]pyridine-2-carboxamide] | 50 to 100 |
| O=C(NO)c1cc2c(s1)CN(C(=O)Nc1cccc(C(F)(F)F)c1)CC2 [Compound 54, N^2-hydroxy-N^6-[3-(trifluoromethyl)phenyl]-4,7-dihydrothieno[2,3-c]pyridine-2,6(5H)-dicarboxamide] | < 50 |
| O=C(NO)c1cc2c(s1)CN(C(=O)Cc1cc(F)cc(F)c1)CC2 [Compound 52, 6-(2-(3,5-difluorophenyl)acetyl)-N-hydroxy-4,5,6,7-tetrahydrothieno[2,3-c]pyridine-2-carboxamide] | 50 to 100 |
| CC1(C(=O)N2Cc3cc(C(=O)NO)sc3C(C)(C)C2)CCCCC1 [Compound 224, N-hydroxy-7,7-dimethyl-5-[(1-methylcyclohexyl)carbonyl]-4,5,6,7-tetrahydrothieno[3,2-c]pyridine-2-carboxamide] | > 1000 |
